Key:
[1] = Barrel test experiments on used broiler litter, Examples 5-8; settings: used rice hull litter in tubs, vs untreated control
Source text: Used litter (rice hulls which may also contain poultry manure, moisture, feed residue and/or feathers) were acquired from a commercial broiler chicken farm and transported in plastic barrels. Twenty three kilograms of litter were weighed into 0.4 m^2 plastic tubs to cover the tubs to a depth of approximately 10 cm. The tubs were stored uncovered in a poultry rearing facility, and environmental conditions were controlled to mimic the conditions that would be experienced in a commercial broiler house (temperature around 32° C.).
Tubs were treated with NaHSO4 at a dose equivalent to 1 wt % Ammonia was then measured for 35 days.
Tubs were treated in two steps. A dose equivalent to 1 wt % of NaHSO4 as Acidifier was added to the tubs. After 24 hours, a dose equivalent to 3.2 wt % of Na2EDTA was added and dispersed. Ammonia was then measured for 35 days.
Tubs were treated in two steps. A dose equivalent to 1 wt % of NaHSO4 as Acidifier was added to the tubs. After 24 hours, a dose equivalent to 3.2 wt % of K2EDTA was added as an aqueous solution. Ammonia was then measured for 35 days.
Tubs were treated in two steps. A dose equivalent to 1.23 wt % of EDTA Acid was added to the tubs. After 24 hours, a dose equivalent to 3.2 wt % of Na2EDTA was added and dispersed. Ammonia was then measured for 35 days.

Staphylococcus-cohnii = experiment: Lab headspace ammonia test on ground straw with synthetic poultry urine, Example 3; assay type: cell-based
Description: (§1) Synthetic Poultry Urine Preparation. In these Examples, synthetic urine was prepared as follows for each 100 g of synthetic poultry urine needed. The amounts can be scaled up or down as needed. The following components were added to a sterilized bottle: Urea (USP Grade): 0.43 g, Ammonia: 0.46 g, K3PO4 (USP grade): 6.8 g, Milli-Q water: 83.52 g. The bottle was capped and placed on a bottle roller at ambient temperature for 1 to 3 hours. The pH of the solution was measured to confirm the pH is between 13 and 14.
(§2) Bacteria Preparation. In these Examples, the Staphylococcus-cohnii and the Staphylococcus-cohnii/Staphylococcus-xylosus bacteria strains used were environmental isolates from poultry manure and cat litter respectively. As used herein, “Staphylococcus-cohnii/Staphylococcus-xylosus” refers to a bacteria strain that is an environmental isolate from cat feces that through DNA sequencing has been identified to be genetically similar to both Staphylococcus-cohnii and Staphylococcus-xylosus. The identifications were determined by DNA sequencing at an external lab with genus confidence level.
(§3) The bacteria strains were isolated on a sterile tryptic soy agar plate, grown for 2 days in a 30 degrees ° C. incubator and stored in a refrigerator. A fresh plate was prepared every 2 weeks.
The bacteria were grown the day before the start of the experiments by taking a loopful of the bacteria from the agar plate with a 10 uL loop and immersing it in 10 mL sterile tryptic soy broth filling half of the container. All bacteria used in the Examples are aerobic and therefore need air on top of the growth medium. The vials were incubated at 30 degrees C. in a shaking incubator at 100 rpm for 24 hours. The count of the bacteria in the growth media was determined by the serial dilutions method, where 10 serial dilutions of the growth medium in sterile Physiological Buffered Saline (PBS) solution are performed with 10× dilution each time. Each dilution was plated twice using 100 μL of growth media for each plate. The numbers of colonies were counted on the dilution plate that had between 30 and 300 colony forming units (CFU) on it. The number of colony forming units in the original growth media was then determined by back-calculating the number of dilutions. […] All pipettes, containers, tips, spoons etc. equipment used for these experiments were sterile in order to prevent contamination with other bacteria. Litters, treatments and chemicals used for preparing synthetic urine were used as-is, without sterilization.
Preparation of grinded straw bedding. A sterilized lab blender was loaded with straw and grinded at pulsed, high setting for 15-45 seconds. Then a new batch of straw was loaded to the blender. […]

[2] = system: Staphylococcus-xylosus/Staphylococcus-cohnii; experiment: Lab headspace ammonia test on ground straw with synthetic poultry urine, Example 4; assay type: cell-based
Description: as §1, §2, §3
The bacteria were grown the day before the start of the experiments by taking a loopful of the bacteria from the agar plate with a 10 uL loop and immersing it in 10 mL sterile tryptic soy broth filling half of the container. All bacteria used in the Examples are aerobic and therefore need air on top of the growth medium. […] The count of the bacteria in the growth media was determined by the serial dilutions method, where 10 serial dilutions of the growth medium in sterile Physiological Buffered Saline (PBS) solution are performed with 10× dilution each time. […] The numbers of colonies were counted on the dilution plate that had between 30 and 300 colony forming units (CFU) on it. The number of colony forming units in the original growth media was then determined by back-calculating the number of dilutions. […]

[3] = 1 day after treatment, vs untreated control
[4] = 3 days after treatment, untreated control 200+ ppm (above tube limit)

SMILES | % improvement in headspace ammonia ([1]; 3 days after treatment) [%] | % improvement in headspace ammonia ([1]; 7 days after treatment) [%] | % improvement in headspace ammonia ([1]; 14 days after treatment) [%] | % improvement in headspace ammonia ([1]; 21 days after treatment) [%] | % improvement in headspace ammonia ([1]; 28 days after treatment) [%] | % improvement in headspace ammonia (Staphylococcus-cohnii; [3]) [%] | % improvement in headspace ammonia (Staphylococcus-cohnii; [4]) | % improvement in headspace ammonia [2, 3] [%] | % improvement in headspace ammonia [2, 4]
O=S(=O)([O-])O.[Na+] [1 wt % NaHSO4, NaHSO4] | 92 | 74 | 37 | −37 | −16 |  |  |  | 
O=C(O)CN(CCN(CC(=O)O)CC(=O)O)CC(=O)O.[K].[K] [2.5% K2EDTA sprayed on top, dipotassium ethylenediaminetetraacetic acid] |  |  |  |  |  | 64 | 5+ % | 57 | 
O=C(O)CN(CCN(CC(=O)O)CC(=O)O)CC(=O)O.[K].[K] [2.5% K2EDTA, dipotassium ethylenediaminetetraacetic acid] |  |  |  |  |  | 64 | 8+ % | 73 | 12+ %

Source: patent publication US11420181B2, “Methods for suppression of ammonia formation from staphylococcus-xylosus and staphylococcus-cohnii” (Dow Global Technologies LLC, priority 2016, dated 2022)
